# Measured values from the NIST ThermoML archive (doi:10.1016/j.jct.2011.01.014).
# ± gives the expanded uncertainty stated by the source.
# Assay: xn = mol fraction of the nth substance listed
# Details: 101 kPa, Liquid; for mass density: Vibrating tube method; for speed of sound: sound velocity cell
smiles,measurement,setting,value
CC(=O)[O-].[NH3+]CCO [2-hydroxyethylammonium acetate] + O,mass density,"288.15 K, x1 = 0.051",1055.26 ± 0.86 kg/m3
same,mass density,"288.15 K, x1 = 0.1019",1085.14 ± 0.43 kg/m3
same,mass density,"288.15 K, x1 = 0.1963",1116.52 ± 0.32 kg/m3
same,mass density,"288.15 K, x1 = 0.2894",1131.28 ± 0.33 kg/m3
same,mass density,"288.15 K, x1 = 0.3959",1140.75 ± 0.49 kg/m3
same,mass density,"288.15 K, x1 = 0.5016",1145.83 ± 0.72 kg/m3
same,mass density,"288.15 K, x1 = 0.5821",1148.34 ± 0.94 kg/m3
same,mass density,"288.15 K, x1 = 0.6837",1150.31 ± 1.2 kg/m3
same,mass density,"288.15 K, x1 = 0.7763",1152.17 ± 1.6 kg/m3
same,mass density,"288.15 K, x1 = 0.8761",1153.59 ± 2 kg/m3
same,mass density,"288.15 K, x1 = 0.9137",1153.92 ± 2.2 kg/m3
same,mass density,"288.15 K, x1 = 1",1154.7 ± 2.6 kg/m3
same,speed of sound,"288.15 K, x1 = 0.051",1676.3 ± 3.2 m/s
same,speed of sound,"288.15 K, x1 = 0.1019",1768.9 ± 1.6 m/s
same,speed of sound,"288.15 K, x1 = 0.1963",1839 ± 1.3 m/s
same,speed of sound,"288.15 K, x1 = 0.2894",1851.1 ± 1.4 m/s
same,speed of sound,"288.15 K, x1 = 0.3959",1843.1 ± 1.6 m/s
same,speed of sound,"288.15 K, x1 = 0.5016",1833.6 ± 1.9 m/s
same,speed of sound,"288.15 K, x1 = 0.5821",1831.6 ± 2 m/s
same,speed of sound,"288.15 K, x1 = 0.6837",1824.3 ± 2.3 m/s
same,speed of sound,"288.15 K, x1 = 0.7763",1824.4 ± 2.6 m/s
same,speed of sound,"288.15 K, x1 = 0.8761",1817.1 ± 2.8 m/s
same,speed of sound,"288.15 K, x1 = 0.9137",1819.5 ± 2.9 m/s
same,speed of sound,"288.15 K, x1 = 1",1817.2 ± 3.2 m/s
same,mass density,"290.65 K, x1 = 0.051",1054.36 ± 0.84 kg/m3
same,mass density,"290.65 K, x1 = 0.1019",1084.06 ± 0.41 kg/m3
same,mass density,"290.65 K, x1 = 0.1963",1115.24 ± 0.31 kg/m3
same,mass density,"290.65 K, x1 = 0.2894",1129.93 ± 0.33 kg/m3
same,mass density,"290.65 K, x1 = 0.3959",1139.38 ± 0.49 kg/m3
same,mass density,"290.65 K, x1 = 0.5016",1144.47 ± 0.72 kg/m3
same,mass density,"290.65 K, x1 = 0.5821",1146.91 ± 0.93 kg/m3
same,mass density,"290.65 K, x1 = 0.6837",1148.88 ± 1.2 kg/m3
same,mass density,"290.65 K, x1 = 0.7763",1150.75 ± 1.6 kg/m3
same,mass density,"290.65 K, x1 = 0.8761",1152.16 ± 2 kg/m3
same,mass density,"290.65 K, x1 = 0.9137",1152.5 ± 2.1 kg/m3
same,mass density,"290.65 K, x1 = 1",1153.28 ± 2.6 kg/m3
same,speed of sound,"290.65 K, x1 = 0.051",1679 ± 3.1 m/s
same,speed of sound,"290.65 K, x1 = 0.1019",1768.6 ± 1.5 m/s
same,speed of sound,"290.65 K, x1 = 0.1963",1836.1 ± 1.3 m/s
same,speed of sound,"290.65 K, x1 = 0.2894",1847.3 ± 1.4 m/s
same,speed of sound,"290.65 K, x1 = 0.3959",1838.7 ± 1.6 m/s
same,speed of sound,"290.65 K, x1 = 0.5016",1828.7 ± 1.9 m/s
same,speed of sound,"290.65 K, x1 = 0.5821",1826.5 ± 2 m/s
same,speed of sound,"290.65 K, x1 = 0.6837",1818.9 ± 2.3 m/s
same,speed of sound,"290.65 K, x1 = 0.7763",1818.5 ± 2.6 m/s
same,speed of sound,"290.65 K, x1 = 0.8761",1810.7 ± 2.8 m/s
same,speed of sound,"290.65 K, x1 = 0.9137",1812.8 ± 2.9 m/s
same,speed of sound,"290.65 K, x1 = 1",1810 ± 3.2 m/s
same,mass density,"293.15 K, x1 = 0.051",1053.41 ± 0.84 kg/m3
same,mass density,"293.15 K, x1 = 0.1019",1082.96 ± 0.41 kg/m3
same,mass density,"293.15 K, x1 = 0.1963",1113.95 ± 0.31 kg/m3
same,mass density,"293.15 K, x1 = 0.2894",1128.59 ± 0.33 kg/m3
same,mass density,"293.15 K, x1 = 0.3959",1138.01 ± 0.49 kg/m3
same,mass density,"293.15 K, x1 = 0.5016",1143.09 ± 0.72 kg/m3
same,mass density,"293.15 K, x1 = 0.5821",1145.54 ± 0.93 kg/m3
same,mass density,"293.15 K, x1 = 0.6837",1147.45 ± 1.2 kg/m3
same,mass density,"293.15 K, x1 = 0.7763",1149.34 ± 1.6 kg/m3
same,mass density,"293.15 K, x1 = 0.8761",1150.75 ± 2 kg/m3
same,mass density,"293.15 K, x1 = 0.9137",1151.09 ± 2.1 kg/m3
same,mass density,"293.15 K, x1 = 1",1151.87 ± 2.5 kg/m3
same,speed of sound,"293.15 K, x1 = 0.051",1681.4 ± 3 m/s
same,speed of sound,"293.15 K, x1 = 0.1019",1768.1 ± 1.4 m/s
same,speed of sound,"293.15 K, x1 = 0.1963",1833.1 ± 1.3 m/s
same,speed of sound,"293.15 K, x1 = 0.2894",1843.4 ± 1.4 m/s
same,speed of sound,"293.15 K, x1 = 0.3959",1834.2 ± 1.6 m/s
same,speed of sound,"293.15 K, x1 = 0.5016",1823.9 ± 1.9 m/s
same,speed of sound,"293.15 K, x1 = 0.5821",1821.6 ± 2 m/s
same,speed of sound,"293.15 K, x1 = 0.6837",1813.6 ± 2.3 m/s
same,speed of sound,"293.15 K, x1 = 0.7763",1812.9 ± 2.6 m/s
same,speed of sound,"293.15 K, x1 = 0.8761",1804.6 ± 2.8 m/s
same,speed of sound,"293.15 K, x1 = 0.9137",1806.5 ± 2.9 m/s
same,speed of sound,"293.15 K, x1 = 1",1803.2 ± 3.2 m/s
same,mass density,"295.65 K, x1 = 0.051",1052.44 ± 0.83 kg/m3
same,mass density,"295.65 K, x1 = 0.1019",1081.85 ± 0.41 kg/m3
same,mass density,"295.65 K, x1 = 0.1963",1112.66 ± 0.3 kg/m3
same,mass density,"295.65 K, x1 = 0.2894",1127.24 ± 0.33 kg/m3
same,mass density,"295.65 K, x1 = 0.3959",1136.62 ± 0.49 kg/m3
same,mass density,"295.65 K, x1 = 0.5016",1141.71 ± 0.72 kg/m3
same,mass density,"295.65 K, x1 = 0.5821",1144.18 ± 0.93 kg/m3
same,mass density,"295.65 K, x1 = 0.6837",1146.02 ± 1.2 kg/m3
same,mass density,"295.65 K, x1 = 0.7763",1147.92 ± 1.6 kg/m3
same,mass density,"295.65 K, x1 = 0.8761",1149.33 ± 2 kg/m3
same,mass density,"295.65 K, x1 = 0.9137",1149.67 ± 2.1 kg/m3
same,mass density,"295.65 K, x1 = 1",1150.45 ± 2.5 kg/m3
same,speed of sound,"295.65 K, x1 = 0.051",1683.6 ± 2.9 m/s
same,speed of sound,"295.65 K, x1 = 0.1019",1767.5 ± 1.4 m/s
same,speed of sound,"295.65 K, x1 = 0.1963",1830.1 ± 1.3 m/s
same,speed of sound,"295.65 K, x1 = 0.2894",1839.5 ± 1.4 m/s
same,speed of sound,"295.65 K, x1 = 0.3959",1829.7 ± 1.6 m/s
same,speed of sound,"295.65 K, x1 = 0.5016",1819.1 ± 1.9 m/s
